Drawing on patent publication US20220089575A1, “FARNESOID X RECEPTOR AGONISTS AND USES THEREOF” (Metacrine, Inc., priority 2017, published 2022), this text covers EC50 for 18 compounds.

Molecules are shown by their SMILES. Where only a bound is given, the exact number is not on record here.

The assay concerns the target T1, hFXR (Homo sapiens, UniProt Q96RI1).
T1 construct: expressed in transfected cells; host or cells: CV-1 cells
T1 sequence (Q96RI1 1-486): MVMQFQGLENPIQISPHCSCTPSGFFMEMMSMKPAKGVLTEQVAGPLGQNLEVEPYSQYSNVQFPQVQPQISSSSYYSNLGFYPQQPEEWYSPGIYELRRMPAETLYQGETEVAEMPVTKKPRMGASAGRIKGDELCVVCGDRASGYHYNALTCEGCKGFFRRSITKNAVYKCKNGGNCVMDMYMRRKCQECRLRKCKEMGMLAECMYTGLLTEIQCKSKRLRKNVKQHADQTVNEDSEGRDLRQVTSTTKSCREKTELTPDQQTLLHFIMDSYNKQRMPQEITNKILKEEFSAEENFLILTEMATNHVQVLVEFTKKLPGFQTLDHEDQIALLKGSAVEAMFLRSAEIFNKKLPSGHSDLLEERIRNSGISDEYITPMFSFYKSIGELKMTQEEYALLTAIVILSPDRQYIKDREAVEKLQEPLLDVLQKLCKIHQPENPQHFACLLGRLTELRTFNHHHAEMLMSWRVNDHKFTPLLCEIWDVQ
T1 sequence (P19793 1-462 partner): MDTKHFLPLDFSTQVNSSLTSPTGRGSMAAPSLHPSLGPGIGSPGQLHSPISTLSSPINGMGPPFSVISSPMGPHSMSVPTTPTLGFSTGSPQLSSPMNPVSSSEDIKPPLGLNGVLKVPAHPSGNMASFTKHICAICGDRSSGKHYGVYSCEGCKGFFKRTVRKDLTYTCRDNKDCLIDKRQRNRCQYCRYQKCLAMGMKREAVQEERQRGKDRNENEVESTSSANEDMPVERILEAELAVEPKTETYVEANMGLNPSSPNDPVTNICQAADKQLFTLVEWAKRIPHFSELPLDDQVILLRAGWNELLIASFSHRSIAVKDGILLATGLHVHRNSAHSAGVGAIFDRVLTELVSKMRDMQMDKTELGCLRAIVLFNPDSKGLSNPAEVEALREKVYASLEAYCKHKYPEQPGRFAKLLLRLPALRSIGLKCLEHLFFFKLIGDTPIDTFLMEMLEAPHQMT
In words: In Vitro FXR Assay (TK): TK-ECRE-luc reporter in transfected CV-1 cells. To be noted: 18 hrs, luminescence, maximum efficacy of <25% of the Fexarmine control classified as '+'. The assay is classed as cell-based. An outline of the steps:
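CV-1 cells in DMEM with 10% charcoal-stripped FBS were co-transfected with hFXR, hRXR, TK-ECRE-luc reporter and pCMX-YFP plasmids. After 18 h, compounds serially diluted in DMSO were added for a further 18 h, then cells were lysed and luminescence read.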
As for `COc1ccc([C@H]2CC[C@H](CN(c3cc(-c4coc(C5CC5)n4)ccn3)C(=O)[C@H]3CC[C@H](OC(=O)N4CC(N(C)C)C4)CC3)CC2)nc1C` [Compound 7.79, trans-4-((4-(2-Cyclopropyloxazol-4-yl)pyridine-2-yl)((trans-4-(5-methoxy-6-methylpyridin-2-yl)cyclohexyl)methyl)carbamoyl)cyclohexyl 3-(dimethylamino)azetidine-1-carboxylate], the EC50 is no more than 250 nM. With `COc1ccc([C@H]2CC[C@H](CN(c3cc(-c4coc(C5CC5)n4)ccn3)C(=O)[C@H]3CC[C@H](OC(=O)N4CC(CO)C4)CC3)CC2)nc1C` [Compound 7.80, trans-4-(4-(2-Cyclopropyloxazol-4-yl)pyridine-2-yl)((trans-4-(5-methoxy-6-methylpyridin-2-yl)cyclohexyl)methyl) carbamoyl)cyclohexyl 3-(hydroxymethyl)azetidine-1-carboxylate] the figure was no more than 250 nM. `COc1ccc([C@H]2CC[C@H](CN(c3cc(-c4coc(C5CC5)n4)ccn3)C(=O)[C@H]3CC[C@H](OC(=O)N4CC(N(C)C)C4)CC3)CC2)cc1C` [Compound 7.81, trans-4-((4-(2-Cyclopropyloxazol-4-yl)pyridine-2-yl)((trans-4-(4-methoxy-3-methylphenyl)cyclohexyl)methyl)carbamoyl)cyclohexyl 3-(dimethylamino)azetidine-1-carboxylate] registered an EC50 of no more than 250 nM. The compound `COc1ccc([C@H]2CC[C@H](CN(c3cc(-c4coc(C(C)C)n4)ccn3)C(=O)[C@H]3CC[C@H](OC(=O)N4CC(OC)C4)CC3)CC2)nc1C` [Compound 7.82, trans-4-((4-(2-Isopropyloxazol-4-yl)pyridine-2-yl)((trans-4-(5-methoxy-6-methylpyridin-2-yl)cyclohexyl)methyl)carbamoyl)cyclohexyl 3-methoxyazetidine-1-carboxylate] displayed a half-maximal effective concentration (EC50) of no more than 250 nM. The compound `COc1ccc([C@H]2CC[C@H](CN(c3cc(-c4coc(C(C)C)n4)ccn3)C(=O)[C@H]3CC[C@H](OC(=O)N4CC(OC(C)C)C4)CC3)CC2)nc1C` [Compound 7.83, trans-4-((4-(2-Isopropyloxazol-4-yl)pyridin-2-yl)((trans-4-(5-methoxy-6-methylpyridin-2-yl)cyclohexyl)methyl)carbamoyl)cyclohexyl 3-isopropoxyazetidine-1-carboxylate] came in with an EC50 of no more than 250 nM. `COc1ccc([C@H]2CC[C@H](CN(c3cc(-c4coc(C(C)C)n4)ccn3)C(=O)[C@H]3CC[C@H](OC(=O)N4CC(N(C)C)C4)CC3)CC2)nc1C` [Compound 7.84, trans-4-((4-(2-Isopropyloxazol-4-yl)pyridine-2-yl)((trans-4-(5-methoxy-6-methylpyridin-2-yl)cyclohexyl)methyl)carbamoyl)cyclohexyl 3-(dimethylamino)azetidine-1-carboxylate] registered an EC50 of no more than 250 nM.

As for `COC(=O)CC1CN(C(=O)O[C@H]2CC[C@H](C(=O)N(C[C@H]3CC[C@H](c4ccc(OC)c(C)n4)CC3)c3cc(-c4coc(C5CC5)n4)ccn3)CC2)C1` [Compound 7.85, trans-4-((4-(2-Cyclopropyloxazol-4-yl)pyridine-2-yl)((trans-4-(5-methoxy-6-methylpyridin-2-yl)cyclohexyl)methyl)carbamoyl)cyclohexyl 3-(2-methoxy-2-oxoethyl)azetidine-1-carboxylate], the EC50 is no more than 250 nM. For `COc1ccc([C@H]2CC[C@H](CN(c3cc(-c4coc(C5CC5)n4)ccn3)C(=O)[C@H]3CC[C@H](OC(=O)N4CC(CC(=O)O)C4)CC3)CC2)nc1C` [Compound 7.86, 2-(1-(((trans-4-((4-(2-Cyclopropyloxazol-4-yl)pyridine-2-yl) ((trans-4-(5-methoxy-6-methylpyridin-2-yl)cyclohexyl)methyl)carbamoyl)cyclohexyl)oxy)carbonyl)azetidin-3-yl)acetic acid], the EC50 lay within 250 to 1000 nM.

On to `CCOC1CN(C(=O)O[C@H]2CC[C@H](C(=O)N(C[C@H]3CC[C@H](c4ccc(OC)c(C)n4)CC3)c3cc(-c4coc(C5CC5)n4)ccn3)CC2)C1` [Compound 7.87, trans-4-((4-(2-Cyclopropyloxazol-4-yl)pyridine-2-yl)((trans-4-(5-methoxy-6-methylpyridin-2-yl)cyclohexyl)methyl)carbamoyl)cyclohexyl 3-ethoxyazetidine-1-carboxylate], for which the EC50 was no more than 250 nM. `COc1ccc([C@H]2CC[C@H](CN(c3cc(-c4coc(C5CC5)n4)ccn3)C(=O)[C@H]3CC[C@H](OC(=O)N4CC(C#N)C4)CC3)CC2)nc1C` [Compound 7.88, trans-4-((4-(2-Cyclopropyloxazol-4-yl)pyridine-2-yl)((trans-4-(5-methoxy-6-methylpyridin-2-yl)cyclohexyl)methyl)carbamoyl)cyclohexyl 3-cyanoazetidine-1-carboxylate] had an EC50 of no more than 250 nM.

`COc1ccc([C@H]2CC[C@H](CN(c3cc(-c4coc(C5CC5)n4)ccn3)C(=O)[C@H]3CC[C@H](OC(=O)N4CC(C)C4)CC3)CC2)nc1C` [Compound 7.89, trans-4-((4-(2-Cyclopropyloxazol-4-yl)pyridine-2-yl)((trans-4-(5-methoxy-6-methylpyridin-2-yl)cyclohexyl)methyl)carbamoyl)cyclohexyl 3-methylazetidine-1-carboxylate] yielded an EC50 of no more than 250 nM. As to `CCC1CN(C(=O)O[C@H]2CC[C@H](C(=O)N(C[C@H]3CC[C@H](c4ccc(OC)c(C)n4)CC3)c3cc(-c4coc(C5CC5)n4)ccn3)CC2)C1` [Compound 7.90, trans-4-((4-(2-Cyclopropyloxazol-4-yl)pyridine-2-yl)((trans-4-(5-methoxy-6-methylpyridin-2-yl)cyclohexyl)methyl)carbamoyl)cyclohexyl 3-ethylazetidine-1-carboxylate], the EC50 is no more than 250 nM. In the case of `COc1ccc([C@H]2CC[C@H](CN(c3cc(-c4coc(C5CC5)n4)ccn3)C(=O)[C@H]3CC[C@H](OC(=O)N4CC(OC(C)C)C4)CC3)CC2)nc1C` [Compound 7.91, trans-4-((4-(2-Cyclopropyloxazol-4-yl)pyridine-2-yl)((trans-4-(5-methoxy-6-methylpyridin-2-yl)cyclohexyl)methyl)carbamoyl)cyclohexyl 3-isopropoxyazetidine-1-carboxylate], the EC50 is no more than 250 nM. `COc1ncc([C@H]2CC[C@H](CN(c3cc(-c4coc(C5CC5)n4)ccn3)C(=O)[C@H]3CC[C@H](OC(=O)N4CC(N(C)C)C4)CC3)CC2)cc1C` [Compound 7.92, trans-4-((4-(2-Cyclopropyloxazol-4-yl)pyridine-2-yl)((trans-4-(6-methoxy-5-methylpyridin-3-yl)cyclohexyl)methyl)carbamoyl)cyclohexyl 3-(dimethylamino)azetidine-1-carboxylate] returned an EC50 of no more than 250 nM. `COc1ncc([C@H]2CC[C@H](CN(c3cc(-c4coc(C5CC5)n4)ccn3)C(=O)[C@H]3CC[C@H](OC(=O)N4CC(OC)C4)CC3)CC2)cc1C` [Compound 7.93, trans-4-((4-(2-Cyclopropyloxazol-4-yl)pyridine-2-yl)((trans-4-(6-methoxy-5-methylpyridin-3-yl)cyclohexyl)methyl)carbamoyl)cyclohexyl 3-methoxyazetidine-1-carboxylate]: the EC50 is no more than 250 nM. Regarding `COc1ncc([C@H]2CC[C@H](CN(c3cc(-c4coc(C5CC5)n4)ccn3)C(=O)[C@H]3CC[C@H](OC(=O)N4CC(O)C4)CC3)CC2)cc1C` [Compound 7.94, trans-4-((4-(2-Cyclopropyloxazol-4-yl)pyridine-2-yl)((trans-4-(6-methoxy-5-methylpyridin-3-yl)cyclohexyl)methyl)carbamoyl)cyclohexyl 3-hydroxyazetidine-1-carboxylate], the EC50 was no more than 250 nM. `COCCOC1CN(C(=O)O[C@H]2CC[C@H](C(=O)N(C[C@H]3CC[C@H](c4ccc(OC)c(C)n4)CC3)c3cc(-c4coc(C5CC5)n4)ccn3)CC2)C1` [Compound 7.95, trans-4-((4-(2-Cyclopropyloxazol-4-yl)pyridine-2-yl)((trans-4-(5-methoxy-6-methylpyridin-2-yl)cyclohexyl)methyl)carbamoyl)cyclohexyl 3-(2-methoxyethoxy)azetidine-1-carboxylate] displayed an EC50 of no more than 250 nM. With `COc1ccc([C@H]2CC[C@H](CN(c3cc(-c4coc(C5CC5)n4)ccn3)C(=O)[C@H]3CC[C@@H](OC(=O)N4CC(O)C4)CC3)CC2)nc1C` [Compound 7.96, 4-(4-(2-Cyclopropyloxazol-4-y)pyridine-2-yl)((4-(5-methoxy-6-methylpyridin-2-yl)cyclohexyl)methyl)carbamoyl) cyclohexyl-cis-3-hydroxyazetidine-1-carboxylate] the figure was 250 to 1000 nM.

Usually EC50 stands for the concentration that produces a half-maximal response. Read a high EC50 as lower potency in that assay.
